Source: US20160264655A1, “Treating cancers with drugs targeting CREB3L1” (Board of Regents, The University of Texas System, priority 2013, published 2016)
Like-named read-outs stand apart in the source and are kept apart here.

How the values were obtained:
CREB3L1 [1] = assay: CREB3L1 cleavage, immunoblot of membrane and nuclear fractions of Huh7 cells; format: cell-based, human; conditions: for amount of the nuclear form of CREB3L1 (cleavage of CREB3L1): Huh7 cells, compound alone
Excerpt: We fractionated human hepatoma Huh7 cells (6) into membrane and nuclear fractions, and used an antibody reacting against the NH2-terminal domain of CREB3L1 (3) to examine the cleavage of CREB3L1 through immunoblot analysis.

CREB3L1 [2] = assay: CREB3L1 cleavage in wild type and S1P- or S2P-deficient CHO cells; format: cell-based, Chinese Hamster
collagen 1a1 and p21 = assay: Expression of CREB3L1 target genes in Huh7 cells; format: cell-based, human
Description: (§1) Inasmuch as CREB3L1 was required for doxorubicin to induce expression of p21, a well-characterized inhibitor of the cell cycle (11), we determined whether CREB3L1 was also required for the drug to inhibit cell proliferation. […] These concentrations of doxorubicin were not enough to trigger apoptosis of Huh7 cells, which became apparent only when the cells were treated with 5 μM of the compound.

Huh7 cells [3] = assay: Proliferation of Huh7 cells; format: cell-based, human
Description: as §1

Huh7 cells [4] = assay: Apoptosis of Huh7 cells; format: cell-based, human
Description: as §1

MCF-7 cells = assay: Proliferation of MCF-7 cells with or without CREB3L1 overexpression; format: cell-based, human; conditions: for IC50: Homo sapiens, MCF7, 48 h, treated 2 days, read-out: IC50 for doxorubicin; for proliferation (cell counting, cellular DNA content): 15 nM for 6 days
Description: (§2) If proteolytic activation of CREB3L1 is required for doxorubicin to inhibit cell proliferation, then the amount of CREB3L1 expressed in cancer cells may determine their sensitivity to doxorubicin. To test this hypothesis, we analyzed SV589 cells, an immortalized line of human fibroblasts (12), and MCF-7 cells, a line of human breast cancer cells (13). […] In this experiment, cells were treated with doxorubicin for 2 days. To determine the effect of CREB3L1 expression on proliferation of the cells treated with doxorubicin for a longer period of time, we incubated MCF-7 and MCF7/pCREB3L1(H) cells with 15 nM doxorubicin for 6 days.

SV589 cells = assay: Growth inhibition of SV589 cells; format: cell-based, human; conditions: two siRNA duplexes
Description: as §2

histone γH2AX = assay: DNA breaks, histone γH2AX marker; format: cell-based
ceramide synthesis = assay: Ceramide synthesis, tritium-labeled palmitate incorporation in Huh7 cells; format: cell-based, human
Excerpt: RIP of membrane-bound transcription factors is known to be a signal transduction pathway that transfers signals from the ER to nucleus (5). […] Daunorubicin, a chemotherapeutic drug derived from doxorubicin, was reported to induce de novo synthesis of ceramide (15).

human kidney tumor = assay: Xenograft of human kidney tumors in mice; format: in vivo
MCF7 = MCF7 xenograft in athymic nude mice; format: in vivo; conditions: MCF7 overexpressing CREB3L1 vs without overexpression
Description: In particular, the relationship between CREB3L1 expression and doxorubicin sensitivity is confirmed in a study of 45 lines of breast cancer cells from ATCC Breast Cancer Cell Panel. […] The relationship between CERB3L1 expression and doxorubicin sensitivity is also confirmed in vivo by injection of MCF7 with or without overexpression of CREB3L1 into athymic nude mice. These mice are then treated with different doses of doxorubicin, confirming that the dose of doxorubicin required to shrink tumors produced from MCF7 cells overexpressing CREB3L1 are lower than those required to shrink tumors generated from those without the overexpression.

[5] = patients treated with the drug; cited from earlier work
cell growth = assay: Requirement of CREB3L1 for inhibition of cell growth; format: cell-based
Excerpt: We then determined the relationship between doxorubicin-induced cleavage of CREB3L1 and DNA breaks caused by inhibition of topoisomerase. […] However, this effect was unaffected by knockdown of CREB3L1 expression.

[6] = Huh7 cells with CREB3L1 knockdown

Q: With `COc1cccc2c1C(=O)c1c(O)c3c(c(O)c1C2=O)C[C@@](O)(C(=O)CO)C[C@@H]3O[C@H]1C[C@H](N)[C@H](O)[C@H](C)O1` [doxorubicin, Doxorubicin] as the compound, how does the “amount of the nuclear form of CREB3L1 (cleavage of CREB3L1)” value (CREB3L1 [1]) read?
A: markedly raised the amount of the nuclear form of CREB3L1

Q: What about the “cleavage of CREB3L1 to the nuclear form” value (CREB3L1 [2]; mutant CHO cells deficient in either S1P or S2P) of the same compound?
A: failed to produce the nuclear form of CREB3L1

Q: And the “cleavage of CREB3L1 to the nuclear form” value (CREB3L1 [2]; wild type CHO cells)?
A: stimulated cleavage of CREB3L1

Q: And the “induction of collagen 1a1 and p21” value (collagen 1a1 and p21; Huh7-shCREB3L1 cells)?
A: markedly blunted

Q: What about the “expression of collagen 1a1 and p21” value (collagen 1a1 and p21; Huh7-shControl cells) of the same compound?
A: induced the expression of collagen 1a1 and p21

Q: What about the “concentration that blocks proliferation” value (Huh7 cells [3]; Huh7-shCREB3L1 cells) of the same compound?
A: > 500 nM

Q: And the “concentration at which apoptosis became apparent” value (Huh7 cells [4])?
A: 5 µM

Q: What about the IC50 (MCF-7 cells; MCF7/pCREB3L1(H), 300-fold CREB3L1 overexpression) of the same compound?
A: ~1 nM

Q: And the IC50 (MCF-7 cells; MCF7/pCREB3L1(L), 8-fold CREB3L1 overexpression)?
A: 10 nM

Q: What about the IC50 (MCF-7 cells; parental MCF-7 cells) of the same compound?
A: 500 nM

Q: What about the “proliferation (cell counting, cellular DNA content)” value (MCF-7 cells; MCF7/pCREB3L1(H) cells) of the same compound?
A: markedly blocked proliferation

Q: What about the “proliferation (cell counting, cellular DNA content)” value (MCF-7 cells; MCF-7 cells) of the same compound?
A: did not affect proliferation

Q: What about the “effect of CREB3L1 siRNA knockdown on sensitivity” value (SV589 cells) of the same compound?
A: more resistant

Q: What about the “DNA breaks (histone γH2AX)” value (histone γH2AX) of the same compound?
A: induced appearance of histone γH2AX

Q: What about the “tritium-labeled palmitate incorporated into ceramide” value (ceramide synthesis) of the same compound?
A: increased the amount of tritium-labeled palmitate incorporated into ceramide

Q: And the “effect compared with rapamycin” value (human kidney tumor; tumors expressing CREB3L1)?
A: better than rapamycin

Q: And the tumor response (human kidney tumor; tumors expressing CREB3L1, dose about 7 times lower than clinical)?
A: profoundly inhibited

Q: And the tumor response (human kidney tumor; tumors without CREB3L1 expression, dose about 7 times lower than clinical)?
A: did not respond

Q: And the “doxorubicin sensitivity of kidney tumors” value (human kidney tumor; tumors without vs with CREB3L1 by 10H1 staining, day 3 to 21)?
A: much less doxorubicin sensitivity

Q: What about the “dose required to shrink tumors” value (MCF7) of the same compound?
A: lower

Q: And the “clinically relevant concentration in the serum of patients” value [5]?
A: < 1 µM

Q: What does the source list for `CCCCCCCCCCCCC/C=C/[C@@H](O)[C@H](CO)NC(=O)CCCCC` [C6-ceramide]?
A: amount of the nuclear form of CREB3L1 (cleavage of CREB3L1) (CREB3L1 [1]): stimulated CREB3L1 cleavage; inhibition of cell proliferation after CREB3L1 knockdown (Huh7 cells [3]; [6]): completely abolished the ability of C6-ceramide to inhibit cell proliferation

Q: For bleomycin, which “requirement of CREB3L1 to inhibit cell growth” value (cell growth) is on record?
A: not required

Q: With `CCCCCCC(=O)CCCCCC/C=C/C[C@@H](O)[C@H](O)[C@@](N)(CO)C(=O)O` [Myriocin] as the compound, how does the “inhibition of doxorubicin-induced cleavage of CREB3L1” value (CREB3L1 [1]; co-treatment with doxorubicin) read?
A: inhibited doxorubicin-induced cleavage of CREB3L1 in a dose-dependent manner

Q: What about the “effect of co-treatment on cell sensitivity to doxorubicin” value (Huh7 cells [3]; co-treatment with doxorubicin) of the same compound?
A: rendered the cells more resistant to doxorubicin

Q: Which “requirement of CREB3L1 to inhibit cell growth” value (cell growth) does the source give for `CC(=O)O[C@H]1C(=O)[C@@]2(C)[C@H]([C@H](OC(=O)c3ccccc3)[C@]3(O)C[C@H](OC(=O)[C@H](O)[C@@H](NC(=O)c4ccccc4)c4ccccc4)C(C)=C1C3(C)C)[C@]1(OC(C)=O)CO[C@@H]1C[C@@H]2O` [paclitaxel] here?
A: not required

Q: What does the source list for `COc1cc([C@@H]2c3cc4c(cc3[C@@H](O[C@@H]3O[C@@H]5CO[C@@H](C)O[C@H]5[C@H](O)[C@H]3O)[C@H]3COC(=O)[C@H]23)OCO4)cc(OC)c1O` [etoposide]?
A: amount of the nuclear form of CREB3L1 (cleavage of CREB3L1) (CREB3L1 [1]): failed to induce cleavage of CREB3L1; effect of CREB3L1 knockdown on resistance (Huh7 cells [3]; [6]): did not increase their resistance; effect of CREB3L1 overexpression on sensitivity (MCF-7 cells; MCF7 cells overexpressing CREB3L1): did not increase their sensitivity
